{
  "source": "patent US20240153607A1",
  "about": "“System for Determining Treatment Timing and Methods of Treatment Timed Based on Biological Process Indicators” (Arcascope Inc., priority 2022, published 2024)",
  "origin": "cited, not measured here",
  "conditions": "cancer treatments in humans; [Hrushesky], [Lévi1990]",
  "data": [
    {"smiles": "COc1cccc2c1C(=O)c1c(O)c3c(c(O)c1C2=O)C[C@@](O)(C(=O)CO)C[C@@H]3O[C@H]1C[C@H](N)[C@H](O[C@@H]2CCCCO2)[C@H](C)O1", "note": "[theprubicin]", "values": [
      {"measurement": "time of day at which the drug is most tolerable (toxicity by time of day)", "value": "most tolerable in the morning"}
    ]},
    {"smiles": "COc1cccc2c1C(=O)c1c(O)c3c(c(O)c1C2=O)C[C@@](O)(C(=O)CO)C[C@@H]3O[C@H]1C[C@H](N)[C@H](O)[C@H](C)O1", "note": "[doxorubicin]", "values": [
      {"measurement": "time of day at which the drug is most tolerable (toxicity by time of day)", "value": "most tolerable in the morning"}
    ]}
  ]
}
